Results: patent US6321750A, “Condom lubricants with zinc salts as anti-viral additives” (priority 1999, dated 2001)
Where two headings read alike, the source gives them in different places.

What was measured:
[1] = system: genitals (both persons, during intercourse); test: Irritation test of lubricant during intercourse / human volunteers; format: in vivo; settings: human, in vivo
From the text: Subsequently, the gel formulation was applied topically and used as a sexual lubricant during intercourse. Both people wiped off the excess with a tissue after intercourse, but neither person showered or washed off the lubricant until the following day. It caused no irritation to either person.

forearm = test: Irritation test on forearm / skin; format: in vivo, human; settings: in vivo
Method: Zinc acetate was purchased from Pfaltz and Bauer (Waterbury, Connecticut). About 0.5 grams were mixed with several drops of distilled water at room temperature. […] The aqueous mixture was rubbed into an area about 3 cm in diameter on the forearm of […] and caused no irritation. Subsequently, about 0.5 grams of the salt were dissolved in a few drops of distilled water, then 10 ml K-Y Lubricating Jelly (sold by Johnson and Johnson, New Brunswick, N.J.) was added to form a gel mixture containing about 5% zinc acetate (w/v). This commercially available mixture contains purified water, hydroxyethyl-cellulose as a thickening agent, glycerin as a lubricant, glucono-delta-lactate to prevent crystallization, chlorhexidine gluconate as a preservative, and sodium hydroxide to reduce the acidity.

[2] = cited from earlier work; for ionization rate: in aqueous solution; for Reported pK values: values below 2 refer to release of a single carboxy anion
[3] = Acidity tests: pH of 5% w/v zinc salt solutions; settings: for pH of solution (rounded) / pH of solution: 5% w/v in distilled deionized water; for pH of solution: 0.05 subtracted from meter reading, approximately accurate
vagina = test: Irritation test in shallow region of the vagina (volunteer); format: in vivo, human; settings: human, in vivo
male genitals = test: Irritation test on male genitals / urethra; settings: in vivo
Method: In all examples, the test subjects were a monogamous married couple, free of genital herpes and all other known sexually transmitted viruses.
The mixture of zinc acetate in K-Y Lubricating Jelly was tested on the male genitals, passively at first and then with active rubbing.
About 0.5 grams were dissolved in several drops of distilled water and tested on the forearm and genitals.

[4] = system: genitals (both persons, during intercourse); settings: cited from earlier work
H-9 lymphocytes = test: Toxicity to lymphocytes; format: cell-based; settings: at the concentrations of interest
Method: In a first set of tests, 20 mg of zinc acetate powder (ZnAc, MW 183.4) was mixed in 1 ml RPMI cell culture medium (Whittaker Corp.). This 2% (w/v) salt mixture contained 7 mg/ml elemental Zn. […] Therefore, a small quantity of HCl was added until the mixture became clear; the pH was about 5.5. The Zn concentration was reduced by half (and the pH was raised somewhat) when an equal volume (1 ml) of cell-free high-titer HIV-1 viral stock was added. The zinc/virus mixture was stirred and incubated for 2 hours at 37° C. (i.e., normal body temperature).
Following this first incubation step, the zinc/virus mixtures were diluted at 1:10, 1:30, and 1:100 ratios using culture medium, and aliquots were added to equal volumes of culture media containing H-9 lymphocytes that had been pretreated overnight with 2 μg/ml Polybreen. The lymphocyte mixtures were incubated for three hours at 37° C.; zinc concentrations during this step were 180, 60, and 18 μg/ml for the 1:10, 1:30, and 1:100 dilutions.
A 2 ml aliquot from each dilution was mixed with an equal volume of 3% ZnAc dissolved in sterile distilled water; after mixing, the zinc concentration was 5.3 mg/ml Zn. These mixtures were incubated for 2 hours, then diluted with culture medium at 1:30, 1:100, and 1:1000 to reduce the toxicity of the zinc to lymphocytes. Four ml of lymphocytes were mixed with 4 ml of each zinc/virus mixture. The zinc/virus/cell mixtures were incubated at 37° C. for 3 hours; zinc concentrations were 88, 27, and 2.7 μg/ml in the 30, 100, and 1000 dilutions.

sperm cells = settings: undiluted semen; Eliasson 1971, Paz et al 1977; cited from earlier work
[5] = system: herpes simplex virus (HSV); test: Herpes simplex virus plaque assay on CV-1 cells; settings: in vitro tests
Method: The first step of this assay models what happens inside the vaginal cavity. In this part of the assay, the candidate anti-viral agent (such as a zinc salt) was mixed and incubated for a relatively brief period with HIV particles. […] In subsequent tests using herpes viruses (which are much easier to work with than HIV), a range of first-stage incubation times were tested, ranging from 2 hours to only 5 minutes.
Susceptible lymphocyte cells were then added to this mixture, and a second incubation step was carried out for a number of days (20 days or more, when HIV was tested; 3 days, when herpes viruses were tested in plaque assays) to determine whether zinc-treated or untreated viruses would infect the lymphocytes.
After those toxicity tests had been evaluated, the viral inhibition tests were done on CV-1 cells, an immortalized cell line originally from a monkey kidney, which is highly and reliably susceptible to herpes virus infection, and which is widely used in in vitro tests on herpes viruses.
Tests were also carried out using a range of zinc salt concentrations, from 50 mM down to 5 mM, using constant 2 hour incubation periods.

[Cl-].[Cl-].[Zn+2] [Zinc chloride]
irritation in initial tests [1]: significant irritation
burning, forearm (forearm): immediately caused a burning sensation
ionization rate [2]: ~100%

O=C[O-].O=C[O-].[Zn+2] [Zinc formate]
Reported pK values: pK1 ([2]; in water): 0.6
Reported pK values: pK2 ([2]; in water): 0.95

O=C(O)CO.O=C(O)CO.[Zn] [Zinc glycolate]
Reported pK values ([2]; in water): 1.92

CC(O)C(=O)[O-].CC(O)C(=O)[O-].[Zn+2] (stereo not shown) [Zinc lactate]
irritation during intercourse [1]: no irritation of any sort
pH of solution (rounded) [3]: about 6.2
pH of solution [3]: 6.16
Reported pK values ([2]; in water): 1.86
MCC (several cell lines): ~200 mM

CCC(=O)[O-].CCC(=O)[O-].[Zn+2] [Zinc propionate]
irritation, vagina (vagina): vaginal irritation
irritation, vagina / female genitals (vagina): no irritation
irritation of gel / genital lubricant formulations [1]: did not cause any irritation
burning and irritation to the skin (forearm): substantial amount of burning and irritation to the skin
irritation, forearm (forearm): no irritation
Reported pK values ([2]; in water): 1.01
irritation, male genital skin (male genitals): no irritation
irritation, male genitals (male genitals): did not cause any irritation
irritation, urethra (male genitals): substantial irritation

O=S(=O)([O-])[O-].[Zn+2] [Zinc sulfate]
irritation, person, passive test (vagina): tingling, burning sensation
irritation in initial tests [1]: significant irritation
irritation, human volunteers [1]: no noticeable irritation
irritation, forearm (forearm): did not cause any irritation
acidity relative to zinc acetate or lactate solution ([3]; 5% solutions): about 4 times
pH drop relative to zinc acetate or lactate solution ([3]; 5% solutions, from 6.2 to 5.6): 0.6
pH of solution (rounded) [3]: about 5.6
pH of solution [3]: 5.58
ionization rate [2]: ~100%
irritation (prior art / known) ([4]; human, in vivo): substantial burning and irritation in most people
irritation, male genital skin (male genitals): did not cause any irritation
irritation, urethra (male genitals): did not cause any irritation

[Zn+2] [zinc]
effect on physical irritation caused by nonoxynol [1]: can actually reduce the physical irritation that is caused by nonoxynol
toxicity to lymphocytes (H-9 lymphocytes): toxic to lymphocytes
effect on sperm respiratory activity and motility (sperm cells): suppresses the respiratory activity and motility of sperm cells

Zinc butyrate
Reported pK values ([2]; in water): 1.00

Zinc gluconate
irritation, vagina / female genitals (vagina): no irritation
abrasion during intercourse [1]: no abrasion was noticeable
irritation, forearm (forearm): no irritation
Reported pK values ([2]; in water): 1.70
anti-viral effect against herpes viruses [5]: clearly effective in preventing infection by herpes viruses
MCC (several cell lines): ~200 mM
irritation, male genitals (male genitals): no irritation

Zinc glycerate
Reported pK values ([2]; in water): 1.80

nonoxynol
irritation (prior art / known) ([4]; literature or general knowledge): cause irritation in many users

octoxynol
irritation (prior art / known) ([4]; human, in vivo): cause irritation in many users
